Patent US20240190849A1, “AMINOPYRIMIDINE COMPOUNDS AND METHODS OF THEIR USE” (TYRA BIOSCIENCES, INC., priority 2021, published 2024)

What was measured:
[1] = test system: UM-UC-14 (Bladder Cancer), FGFR3(S249C); test: Cancer cell viability assay (Cell Titer-Glo), UM-UC-14; type: cell-based; details: UMUC14, UM-UC-14 cells, 72 hours
Source text: (§1) RT112/84, UM-UC-14, SNU-16 and KG-1 Cancer Cell Line Cell Viability Assays
(§2) To detect the change of intracellular ATP by Cell Titer-Glo@ and to evaluate the inhibitory effect of the compounds on cancer cell lines by determining the in vitro IC50 value of the compounds.
(§3) Cell Titer-Glo@ 2.0 Luminescent cell viability assay reagent was purchased from Promega (Madison, WI). RT112/84, SNU-16, and KG-1 cell lines were purchased from American Type Culture Collection (Manassas, VA). UM-UC-14 cell line was purchased from Sigma (St. Louis, MO). RT112/84, UM-UC-14, SNU-16, and KG-1 cells were cultured in RPMI1640 media supplemented with 10% fetal bovine serum. Cultures were maintained at 37° C. in a humidified atmosphere of 5% CO2 and 95% air.
(§4) Cell Viability Assay Procedure: Cells were plated in 96-well clear bottom/white plates (Corning #3903) at 10,000 cells/well in 100 μl of media, incubated overnight. The next day, test compound DMSO stock solutions were made at 10 mM and 2 μM final concentration. Compounds were then added to cells in a 9-dose, […] dilution series starting at 30 μM with an HP 300e Digital Dispenser (each dose was applied in triplicate). DMSO was backfilled to each well up to 301 nL total volume of test compound+DMSO, and a total of 301 nL DMSO was added to a control/no test compound well in triplicate. The cells in cell culture plates were incubated with the compounds at 37° C. and 5% CO2 for 72 hours. Then 50 μl of Cell Titer Glo 2.0 reagent was added to each well of the cell culture plates. The contents were covered from light and mixed on an orbital shaker at room temperature for 10 min. Luminescence was recorded by a Synergy H1 Microplate Reader (Biotek, Winooski, VT). Cells were assessed as a percentage of DMSO only treated control cells. Curves were plotted and IC50 values were calculated using the GraphPad Prism 8 program based on a sigmoidal dose-response equation (4 parameter).

FGFR1 = molecular target: T1, FGFR1 (Homo sapiens, UniProt P11362); test: Kinase binding assay (kinase-tagged T7 phage, affinity beads, qPCR readout), FGFR1; details: FGFR binding data
T1 construct: made in house; host or cells: E. coli derived from BL21, infected with T7 phage
T1 sequence (P11362 22-822): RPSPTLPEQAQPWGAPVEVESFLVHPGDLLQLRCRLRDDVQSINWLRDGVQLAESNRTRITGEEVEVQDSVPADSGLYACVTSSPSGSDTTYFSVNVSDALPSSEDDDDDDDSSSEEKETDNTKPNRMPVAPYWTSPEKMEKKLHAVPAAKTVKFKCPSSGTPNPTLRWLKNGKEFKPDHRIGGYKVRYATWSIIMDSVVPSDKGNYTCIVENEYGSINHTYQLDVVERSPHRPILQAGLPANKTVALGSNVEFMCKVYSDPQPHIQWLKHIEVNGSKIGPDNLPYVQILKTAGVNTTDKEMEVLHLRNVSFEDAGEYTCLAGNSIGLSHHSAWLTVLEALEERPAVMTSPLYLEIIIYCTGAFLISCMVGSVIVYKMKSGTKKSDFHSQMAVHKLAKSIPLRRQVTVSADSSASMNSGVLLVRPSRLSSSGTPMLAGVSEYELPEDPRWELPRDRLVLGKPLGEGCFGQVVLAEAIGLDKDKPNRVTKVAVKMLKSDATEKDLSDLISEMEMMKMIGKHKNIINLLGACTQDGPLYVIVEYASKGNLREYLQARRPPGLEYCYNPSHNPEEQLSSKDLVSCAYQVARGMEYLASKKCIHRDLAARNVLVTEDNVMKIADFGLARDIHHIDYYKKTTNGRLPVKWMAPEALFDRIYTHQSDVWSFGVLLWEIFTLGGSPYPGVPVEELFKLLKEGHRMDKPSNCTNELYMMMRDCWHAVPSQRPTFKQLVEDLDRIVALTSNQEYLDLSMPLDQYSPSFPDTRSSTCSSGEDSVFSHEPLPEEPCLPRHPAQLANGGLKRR
Summary of the method: (§5)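 Competition binding: kinases displaced from biotinylated-ligand streptavidin beads by test compound in binding buffer (20% SeaBlock, 0.17×PBS, 0.05% Tween 20, 6 mM DTT), 1 hour at room temperature, 0.9% DMSO. Bead-bound kinase eluted with 0.5 μM free ligand, quantified by qPCR. Kd from 11-point 3-fold dilutions, Hill slope fixed at −1.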

FGFR3 = molecular target: T2, FGFR3 (Homo sapiens, UniProt P22607); test: Kinase binding assay (kinase-tagged T7 phage, affinity beads, qPCR readout), FGFR3; details: FGFR binding data
T2 construct: made in house; host or cells: E. coli derived from BL21, infected with T7 phage
T2 sequence (P22607 23-806): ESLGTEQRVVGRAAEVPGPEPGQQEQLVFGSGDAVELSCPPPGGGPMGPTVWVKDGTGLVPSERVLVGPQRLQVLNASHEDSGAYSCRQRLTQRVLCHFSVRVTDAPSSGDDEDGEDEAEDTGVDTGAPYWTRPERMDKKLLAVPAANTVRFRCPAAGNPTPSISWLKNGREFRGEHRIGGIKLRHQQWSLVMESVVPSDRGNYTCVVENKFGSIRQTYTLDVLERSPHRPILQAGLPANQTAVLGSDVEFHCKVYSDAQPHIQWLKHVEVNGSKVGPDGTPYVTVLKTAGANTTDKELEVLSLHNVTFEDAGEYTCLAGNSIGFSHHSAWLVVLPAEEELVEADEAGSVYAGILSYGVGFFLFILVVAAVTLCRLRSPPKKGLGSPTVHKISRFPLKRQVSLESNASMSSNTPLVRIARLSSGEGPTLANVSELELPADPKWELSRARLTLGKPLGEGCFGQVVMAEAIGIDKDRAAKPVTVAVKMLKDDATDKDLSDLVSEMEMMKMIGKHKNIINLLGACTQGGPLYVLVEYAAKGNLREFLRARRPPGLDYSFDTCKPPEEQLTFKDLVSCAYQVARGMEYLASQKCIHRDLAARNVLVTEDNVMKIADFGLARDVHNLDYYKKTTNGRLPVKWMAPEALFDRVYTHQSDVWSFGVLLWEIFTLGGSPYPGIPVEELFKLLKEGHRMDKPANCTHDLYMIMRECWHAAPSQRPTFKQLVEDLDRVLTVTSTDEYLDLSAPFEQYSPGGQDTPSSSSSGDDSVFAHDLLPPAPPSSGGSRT
Summary of the method: as §5

FGFR3 (V555M) = molecular target: T3, FGFR3 (V555M) (Homo sapiens, UniProt P22607, V555M); test: Kinase binding assay (kinase-tagged T7 phage, affinity beads, qPCR readout), FGFR3 (V555M); details: FGFR binding data
T3 construct: made in house; host or cells: E. coli derived from BL21, infected with T7 phage
T3 sequence (P22607 23-806 V555M): as the sequence (P22607 23-806) above, with V533M counted along it
Summary of the method: as §5

FGFR2 = molecular target: T4, FGFR2 (Homo sapiens, UniProt P21802); test: Kinase binding assay (kinase-tagged T7 phage, affinity beads, qPCR readout), FGFR2; details: FGFR binding data
T4 construct: made in house; host or cells: E. coli derived from BL21, infected with T7 phage
T4 sequence (P21802 22-821): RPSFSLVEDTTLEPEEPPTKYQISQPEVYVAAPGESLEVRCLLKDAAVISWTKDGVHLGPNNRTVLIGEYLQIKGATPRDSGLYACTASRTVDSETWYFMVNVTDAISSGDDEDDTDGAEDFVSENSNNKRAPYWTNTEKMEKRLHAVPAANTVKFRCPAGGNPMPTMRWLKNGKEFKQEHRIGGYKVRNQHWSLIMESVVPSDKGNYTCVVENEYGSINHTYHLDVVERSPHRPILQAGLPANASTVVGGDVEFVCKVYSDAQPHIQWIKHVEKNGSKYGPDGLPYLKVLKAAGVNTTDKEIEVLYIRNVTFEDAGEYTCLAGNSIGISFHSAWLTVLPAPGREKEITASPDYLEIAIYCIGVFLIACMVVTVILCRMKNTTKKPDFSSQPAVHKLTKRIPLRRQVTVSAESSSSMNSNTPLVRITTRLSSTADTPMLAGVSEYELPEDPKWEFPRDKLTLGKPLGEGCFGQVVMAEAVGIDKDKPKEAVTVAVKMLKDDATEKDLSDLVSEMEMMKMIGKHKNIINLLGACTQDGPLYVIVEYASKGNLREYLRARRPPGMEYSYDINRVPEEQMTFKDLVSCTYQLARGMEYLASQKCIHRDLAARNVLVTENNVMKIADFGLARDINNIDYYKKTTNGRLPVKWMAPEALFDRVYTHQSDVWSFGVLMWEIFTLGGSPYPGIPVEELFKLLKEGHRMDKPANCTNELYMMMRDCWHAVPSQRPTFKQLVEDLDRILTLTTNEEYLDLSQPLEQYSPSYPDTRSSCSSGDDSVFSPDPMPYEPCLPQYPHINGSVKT
Summary of the method: as §5

[2] = test system: SNU-16 (Gastric Carcinoma), FGFR2 amplification; test: Cancer cell viability assay (Cell Titer-Glo), SNU-16; type: cell-based; details: Homo sapiens, SNU-16 cells, 72 hours, read-out: SNU16 FGFR2 (IC50 nM)
Source text: as §1, §2, §3, §4

IC50 [1]	Kd (FGFR1)	Kd (FGFR3)	Kd (FGFR3 (V555M))	Kd (FGFR2)	IC50 [2]	SMILES
100 to 250 nM	–	–	–	–	–	C=CC(=O)Nc1ccc2c(-c3nc(Nc4cnc5ccnn5c4)ncc3Cl)cn(C)c2c1 [Example 43, N-[3-[5-chloro-2-(pyrazolo[1,5-a]pyrimidin-6-ylamino)pyrimidin-4-yl]-1-methyl-indol-6-yl]prop-2-enamide]
250 to 1000 nM	> 1000 nM	250 to 1000 nM	> 1000 nM	250 to 1000 nM	–	C=CC(=O)Nc1ccc2c(c1)c(C)nn2-c1nc(Nc2ccnn2C)ncc1F [Example 76, N-[1-[5-fluoro-2-[(2-methylpyrazol-3-yl)amino]pyrimidin-4-yl]-3-methyl-indazol-5-yl]prop-2-enamide]
> 1000 nM	> 1000 nM	250 to 1000 nM	250 to 1000 nM	> 1000 nM	–	C=CC(=O)Nc1ccc2c(c1)c(C)nn2-c1nc(Nc2ccnn2C)ncc1C [Example 77, N-[3-methyl-1-[5-methyl-2-[(2-methylpyrazol-3-yl)amino]pyrimidin-4-yl]indazol-5-yl]prop-2-enamide]
0.1 to 100 nM	0.1 to 100 nM	0.1 to 100 nM	0.1 to 100 nM	0.1 to 100 nM	–	C=CC(=O)Nc1cnc2c(c1)c(C)cn2-c1nc(Nc2ccnn2C)ncc1F [Example 80, N-[1-[5-fluoro-2-[(2-methylpyrazol-3-yl)amino]pyrimidin-4-yl]-3-methyl-pyrrolo[2,3-b]pyridin-5-yl]prop-2-enamide]
–	0.1 to 100 nM	0.1 to 100 nM	0.1 to 100 nM	0.1 to 100 nM	0.1 to 100 nM	C=CC(=O)Nc1ccc2c(c1)c(C)cn2-c1nc(Nc2cn(CC(C)(C)O)nc2C)ncc1F [Example 182, N-[1-[5-fluoro-2-[[1-(2-hydroxy-2-methyl-propyl)-3-methyl-pyrazol-4-yl]amino]pyrimidin-4-yl]-3-methyl-indol-5-yl]prop-2-enamide]
–	0.1 to 100 nM	0.1 to 100 nM	0.1 to 100 nM	0.1 to 100 nM	0.1 to 100 nM	C=CC(=O)Nc1ccc2c(c1)c(C)cn2-c1nc(Nc2cnn(CC(C)(C)O)c2C)ncc1F [Example 183, N-[1-[5-fluoro-2-[[1-(2-hydroxy-2-methyl-propyl)-5-methyl-pyrazol-4-yl]amino]pyrimidin-4-yl]-3-methyl-indol-5-yl]prop-2-enamide]
–	0.1 to 100 nM	0.1 to 100 nM	0.1 to 100 nM	0.1 to 100 nM	0.1 to 100 nM	C=CC(=O)Nc1ccc2c(-c3ccnc(Nc4cnn(C)c4)n3)cn(C)c2c1 [Example 201, N-[3-[2-[(1-methylpyrazol-4-yl)amino]pyrimidin-4-yl]-1-methyl-indol-6-yl]prop-2-enamide]
–	0.1 to 100 nM	0.1 to 100 nM	0.1 to 100 nM	0.1 to 100 nM	0.1 to 100 nM	C=CC(=O)Nc1ccc2c(c1)c(C)cn2-c1nc(Nc2cnn(C3CCOCC3)c2)ncc1F [Example 208, N-[1-[5-fluoro-2-[(1-tetrahydropyran-4-ylpyrazol-4-yl)amino]pyrimidin-4-yl]-3-methyl-indol-5-yl]prop-2-enamide]
–	0.1 to 100 nM	0.1 to 100 nM	0.1 to 100 nM	0.1 to 100 nM	0.1 to 100 nM	C=CC(=O)Nc1ccc2c(c1)c(C)cn2-c1nc(Nc2cn(C[C@@H](C)O)nc2C)ncc1F [Example 214, N-[1-[5-fluoro-2-[[1-[(2R)-2-hydroxypropyl]-3-methyl-pyrazol-4-yl]amino]pyrimidin-4-yl]-3-methyl-indol-5-yl]prop-2-enamide]
–	0.1 to 100 nM	0.1 to 100 nM	0.1 to 100 nM	0.1 to 100 nM	0.1 to 100 nM	C=CC(=O)Nc1ccc2c(c1)c(C)cn2-c1nc(Nc2cnn(C3CCOC3)c2)ncc1F (stereo not shown) [Example 215, N-[1-[5-fluoro-2-[(1-tetrahydrofuran-3-ylpyrazol-4-yl)amino]pyrimidin-4-yl]-3-methyl-indol-5-yl]prop-2-enamide]
